From patent US20230330093A1, “APPLICATION OF NITROGEN-CONTAINING SATURATED HETEROCYCLIC COMPOUND” (SHANGHAI PHARMACEUTICALS HOLDING CO., LTD., priority 2020, published 2023)

System: cynomolgus monkeys
Experiment: 4-week safety study: routine ECG analysis
Assay type: in vivo
Description: Routine ECG analysis was performed at each scheduled time (day 1 after administration, d01 and d02 after administration, 1 and 24 h after administration on day 1, before administration, and 1 and 24 h after administration on day 26 and day 56). P-wave, R-wave, T-wave, P-R intervals, Q-T intervals, QRS duration and heart rate were recorded by an ECG system using derivation DII (ECG-6951E, Shanghai, China).

## COC(=O)NCCCn1nc([C@@H](C)N(C(=O)[C@H]2CNCCO2)C2CC2)c2ccc(C)nc21 [compound of Formula I]
Female, 20 mg/kg, 1 h (d 1)
  HR: 230.1 ± 20.5 bmp
  QRS: 38.0 ± 4.5 ms
  QT: 160.0 ± 7.1 ms
  QTc: 250.2 ± 10.4 ms
Female, 20 mg/kg, 1 h (d 26)
  HR: 262.8 ± 13.5 bmp
  QRS: 36.0 ± 5.5 ms
  QT: 140.0 ± 7.1 ms
  QTc: 228.9 ± 8.0 ms
Female, 20 mg/kg, 24 h (d 1)
  HR: 209.8 ± 9.3 bmp
  QRS: 34.0 ± 8.9 ms
  QT: 158.0 ± 4.5 ms
  QTc: 239.7 ± 5.4 ms
Female, 20 mg/kg, 24 h (d 26)
  HR: 245.4 ± 43.9 bmp
  QRS: 36.0 ± 5.5 ms
  QT: 150.0 ± 10.0 ms
  QTc: 238.6 ± 14.1 ms
Female, 20 mg/kg, d0
  HR: 185.7 ± 48.0 bmp
  QRS: 34.0 ± 5.5 ms
  QT: 170.0 ± 20.0 ms
  QTc: 244.6 ± 14.3 ms
Female, 20 mg/kg, d 56
  HR: 238.0 ± 29.2 bmp
  QRS: 40.0 ± 0.0 ms
  QT: 160.0 ± 0.0 ms
  QTc: 253.1 ± 10.4 ms
Female, 100 mg/kg, 1 h (d 1)
  HR: 228.5 ± 12.8 bmp
  QRS: 36.0 ± 5.5 ms
  QT: 160.0 ± 7.1 ms
  QTc: 249.6 ± 6.7 ms
Female, 100 mg/kg, 1 h (d 26)
  HR: 246.4 ± 40.7 bmp
  QRS: 38.0 ± 4.5 ms
  QT: 170.0 ± 10.0 ms
  QTc: 271.1 ± 17.2 ms
Female, 100 mg/kg, 24 h (d 1)
  HR: 217.6 ± 22.7 bmp
  QRS: 34.0 ± 5.5 ms
  QT: 162.0 ± 11.0 ms
  QTc: 248.2 ± 7.7 ms
Female, 100 mg/kg, 24 h (d 26)
  HR: 256.1 ± 17.1 bmp
  QRS: 38.0 ± 4.5 ms
  QT: 148.0 ± 8.4 ms
  QTc: 239.8 ± 10.5 ms
Female, 100 mg/kg, d0
  HR: 182.3 ± 28.9 bmp
  QRS: 32.0 ± 4.5 ms
  QT: 170.0 ± 12.2 ms
  QTc: 245.0 ± 9.2 ms
Female, 100 mg/kg, d 56
  HR: 230.8 ± 5.0 bmp
  QRS: 30.0 ± 0.0 ms
  QT: 160.0 ± 0.0 ms
  QTc: 250.7 ± 1.8 ms
Female, 450 mg/kg, 1 h (d 1)
  HR: 211.3 ± 20.5 bmp
  QRS: 50.0 ± 14.1 ms
  QT: 175.0 ± 17.3 ms
  QTc: 265.5 ± 19.9 ms
Female, 450 mg/kg, 1 h (d 26)
  HR: 262.7 ± 15.4 bmp
  QRS: 40.0 ± 0.2 ms
  QT: 140.0 ± 8.2 ms
  QTc: 229.0 ± 14.6 ms
Female, 450 mg/kg, 24 h (d 1)
  HR: 211.3 ± 2.4 bmp
  QRS: 35.0 ± 5.8 ms
  QT: 162.5 ± 9.6 ms
  QTc: 247.2 ± 13.8 ms
Female, 450 mg/kg, 24 h (d 26)
  HR: 257.8 ± 9.0 bmp
  QRS: 32.5 ± 5.0 ms
  QT: 152.5 ± 9.6 ms
  QTc: 247.8 ± 14.4 ms
Female, 450 mg/kg, d0
  HR: 174.1 ± 28.8 bmp
  QRS: 32.0 ± 4.5 ms
  QT: 168.0 ± 16.4 ms
  QTc: 238.1 ± 12.7 ms
Female, 450 mg/kg, d 56
  HR: 207.4 ± 28.1 bmp
  QRS: 25.0 ± 7.1 ms
  QT: 170.0 ± 14.1 ms
  QTc: 256.3 ± 9.7 ms
Male, 20 mg/kg, 1 h (d 1)
  HR: 216.0 ± 27.0 bmp
  QRS: 32.0 ± 4.5 ms
